Laboratory results reported in patent US20250290117A1, “MOLECULAR PHENOTYPIC ANTIMICROBIAL SUSCEPTIBILITY TESTING” (priority 2024, published 2025).

Assays:
[1] = test system: pathogens of clinical samples; experiment: Molecular phenotypic antimicrobial susceptibility test of clinical samples, extraction DNA purification step prior to PCR (Table 6); assay type: cell-based
Procedure, shortened: (§1)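 Semi-quantitative PCR read-out: growth was taken as resistance and its absence as sensitivity, with DNA either purified (e.g. bead-based) or amplified directly from lysed sample without extraction. Before PCR, 0.5 McFarland dilutions of incubated clinical specimens were held 12-16 hours with breakpoint-level antimicrobials in culture media, beside a drug-free control.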

[2] = test system: E. coli; experiment: Molecular phenotypic antimicrobial susceptibility test with direct PCR (no extraction DNA purification step); assay type: cell-based, Escherichia coli
[3] = test system: pathogens of clinical samples; experiment: Molecular phenotypic antimicrobial susceptibility test of clinical samples, direct PCR without a separate DNA purification step (Table 6); assay type: cell-based
Procedure, shortened: as §1

[4] = E. coli, clinical sample of r10-r24
[5] = E. coli, clinical sample of r158-r172
[6] = K. aerogenes, clinical sample of r136-r150
[7] = K. pneumoniae, clinical sample of r121-r135
[8] = M. morganii, clinical sample of r55-r69
[9] = M. morganii, clinical sample of r70-r84
[10] = P. mirabilis, clinical sample of r25-r39
[11] = P. mirabilis, clinical sample of r40-r54

Substance: Piperacillin/Tazobactam
- Molecular Antibiotic Susceptibility Result [1, 4]: Sensitive (Antimicrobial wells with pathogen load detected below the control wells (typically >2 cycle thresholds later) may be reported as Sensitive)
- Ct ([1]; E. coli, clinical sample of r10-r24, Ct Control Avg 18.112): 26.499
- Molecular Antibiotic Susceptibility Result [1, 5]: Sensitive (Antimicrobial wells with pathogen load detected below the control wells (typically >2 cycle thresholds later) may be reported as Sensitive)
- Ct ([1]; E. coli, clinical sample of r158-r172, Ct Control Avg 20.146): 30.693
- Molecular Antibiotic Susceptibility Result [1, 6]: Sensitive (Antimicrobial wells with pathogen load detected below the control wells (typically >2 cycle thresholds later) may be reported as Sensitive)
- Ct ([1]; K. aerogenes, clinical sample of r136-r150, Ct Control Avg 19.994): 32.586
- Molecular Antibiotic Susceptibility Result [1, 7]: Sensitive (Antimicrobial wells with pathogen load detected below the control wells (typically >2 cycle thresholds later) may be reported as Sensitive)
- Ct ([1]; K. pneumoniae, clinical sample of r121-r135, Ct Control Avg 24.272): 34.274
- Molecular Antibiotic Susceptibility Result [1, 8]: Sensitive (Antimicrobial wells with pathogen load detected below the control wells (typically >2 cycle thresholds later) may be reported as Sensitive)
- Ct ([1]; M. morganii, clinical sample of r55-r69, Ct Control Avg 28.86): 36.138
- Molecular Antibiotic Susceptibility Result [1, 9]: Sensitive (Antimicrobial wells with pathogen load detected below the control wells (typically >2 cycle thresholds later) may be reported as Sensitive)
- Ct ([1]; M. morganii, clinical sample of r70-r84, Ct Control Avg 27.053): Undet
- Molecular Antibiotic Susceptibility Result [1, 10]: Sensitive (Antimicrobial wells with pathogen load detected below the control wells (typically >2 cycle thresholds later) may be reported as Sensitive)
- Ct ([1]; P. mirabilis, clinical sample of r25-r39, Ct Control Avg 26.064): 28.92
- Molecular Antibiotic Susceptibility Result [1, 11]: Sensitive (Antimicrobial wells with pathogen load detected below the control wells (typically >2 cycle thresholds later) may be reported as Sensitive)
- Ct ([1]; P. mirabilis, clinical sample of r40-r54, Ct Control Avg 26.987): 33.895
- Molecular Antimicrobial Susceptibility Result ([2]; E. coli #1 - WDCM 00090 - 6.2×E3, specimen with <10,000 cells/mL, direct PCR after 16 hours of incubation): Sensitive (Antimicrobial wells with pathogen load detected below the control wells (typically >2 cycle thresholds later) may be reported as Sensitive)
- Ct at Sensitive Breakpoint ([2]; E. coli #1 - WDCM 00090 - 6.2×E3, specimen with <10,000 cells/mL, direct PCR after 16 hours of incubation, Ct at control 13.787): 26.78
- Molecular Antimicrobial Susceptibility Result ([2]; E. coli #2 - WDCM 00090 - 6.2×E3, specimen with <10,000 cells/mL, direct PCR after 16 hours of incubation): Sensitive (Antimicrobial wells with pathogen load detected below the control wells (typically >2 cycle thresholds later) may be reported as Sensitive)
- Ct at Sensitive Breakpoint ([2]; E. coli #2 - WDCM 00090 - 6.2×E3, specimen with <10,000 cells/mL, direct PCR after 16 hours of incubation, Ct at control 13.46): 27.46
- Ct at Sensitive Breakpoint ([2]; E. coli isolate JJ1887, direct PCR, Ct at control (average) 12.832): 23.923
- Molecular Antimicrobial Susceptibility Result ([2]; E. coli isolate JJ1887, direct PCR, at sensitive breakpoint): Sensitive (Antimicrobial wells with pathogen load detected below the control wells (typically >2 cycle thresholds later) may be reported as Sensitive)
- Molecular Antibiotic Susceptibility Result [3, 4]: Sensitive (Antimicrobial wells with pathogen load detected below the control wells (typically >2 cycle thresholds later) may be reported as Sensitive)
- Ct ([3]; E. coli, clinical sample of r10-r24, Ct control avg 12.97): 24.816
- Molecular Antibiotic Susceptibility Result [3, 5]: Sensitive (Antimicrobial wells with pathogen load detected below the control wells (typically >2 cycle thresholds later) may be reported as Sensitive)
- Ct ([3]; E. coli, clinical sample of r158-r172, Ct control avg 12.894): 29.34
- Molecular Antibiotic Susceptibility Result [3, 6]: Sensitive (Antimicrobial wells with pathogen load detected below the control wells (typically >2 cycle thresholds later) may be reported as Sensitive)
- Ct ([3]; K. aerogenes, clinical sample of r136-r150, Ct control avg 13.854): 30.839
- Molecular Antibiotic Susceptibility Result [3, 7]: Sensitive (Antimicrobial wells with pathogen load detected below the control wells (typically >2 cycle thresholds later) may be reported as Sensitive)
- Ct ([3]; K. pneumoniae, clinical sample of r121-r135, Ct control avg […]): 28.974
- Molecular Antibiotic Susceptibility Result [3, 8]: Sensitive (Antimicrobial wells with pathogen load detected below the control wells (typically >2 cycle thresholds later) may be reported as Sensitive)
- Ct ([3]; M. morganii, clinical sample of r55-r69, Ct control avg 12.09): 13.986
- Molecular Antibiotic Susceptibility Result [3, 9]: Sensitive (Antimicrobial wells with pathogen load detected below the control wells (typically >2 cycle thresholds later) may be reported as Sensitive)
- Ct ([3]; M. morganii, clinical sample of r70-r84, Ct control avg 11.677): 28.975
- Molecular Antibiotic Susceptibility Result [3, 10]: Sensitive (Antimicrobial wells with pathogen load detected below the control wells (typically >2 cycle thresholds later) may be reported as Sensitive)
- Ct ([3]; P. mirabilis, clinical sample of r25-r39, Ct control avg 11.801): 30.658
- Molecular Antibiotic Susceptibility Result [3, 11]: Sensitive (Antimicrobial wells with pathogen load detected below the control wells (typically >2 cycle thresholds later) may be reported as Sensitive)
- Ct ([3]; P. mirabilis, clinical sample of r40-r54, Ct control avg 10.06): 30.24
